Measured values from US20210161837A1, “METHODS FOR TREATING CANCER WITH RORGAMMA INHIBITORS” (The Regents of the University of California, priority 2016, published 2021).

How the values were obtained:
[1] = tested on: LNCaP cells; experiment: Cell viability (CellTiter-GLO), 4 days; type: cell-based; conditions: Homo sapiens, read-out: inhibitory potency (growth inhibition)
Experimental: (§1) (a&b) C4-2B and 22Rv1 cell proliferation after the RORγ antagonist treatment. Cells were seeded in 6-well plates and counted after cells were treated with indicated concentrations of RORγ antagonists for 0, 2, 4 and 6 days by Coulter counter. […] (e) representative images of TUNEL positive cells treated with vehicle or the antagonist (5 μM) in 22Rv1 cells are shown. […] Three days later, cells were harvested for immunoblotting with indicated antibodies.
LNCaP, C4-2B, 22Rv, PC-3, and PC346C prostate cancer cells were cultured in RPMI1640, VCaP, HEK293T and human fibroblast IMR90 cells were in DMEM, LAPC-4 was in Iscove's MEM (all from Corning), and RWPE-1 and PZ-HPV-7 were in Keratinocyte Serum Free Medium (K-SFM) (Invitrogen) with the supplements. All the culture media except for RWPE-1 and PZ-HPV-7 were supplemented with 10% FBS (Hyclone) except indicated otherwise. […]
For cell viability, cells were seeded in 96-well plates at 1500-2500 cells per well (optimum density for growth, depending on the specific cell line) in a total volume of 100 μl media. […] After 4 days of incubation, Cell-Titer GLO reagents (Promega) were added and luminescence was measured on GLOMAX microplate luminometer (Promega), according to the manufacturer's instructions. […] The estimated in vitro IC50 values were calculated using GraphPad Prism 6 software.

[2] = tested on: AR-positive PCa cell models including 22Rv1, VCaP, LNCaP, LAPC4 and PC346C; experiment: Growth inhibition in other AR-positive PCa cell models; type: cell-based, human
Experimental: as §1
(§2) LNCaP, C4-2B, 22Rv, PC-3, and PC346C prostate cancer cells were cultured in RPMI1640, VCaP, HEK293T and human fibroblast IMR90 cells were in DMEM, LAPC-4 was in Iscove's MEM (all from Corning), and RWPE-1 and PZ-HPV-7 were in Keratinocyte Serum Free Medium (K-SFM) (Invitrogen) with the supplements. All the culture media except for RWPE-1 and PZ-HPV-7 were supplemented with 10% FBS (Hyclone) except indicated otherwise. For experiments, C4-2B cells were cultured in RPMI supplemented with 9% cds-FBS plus 1% regular FBS (to mimic the CRPC condition) unless indicated otherwise and 22Rv1 cells were cultured in RPMI supplemented with 10% cds-FBS. Cells were grown at 37° C. in 5% CO2 incubators. LNCaP, VCaP, 22Rv1, PC-3, 293T, IMR90, PZ-HPV-7 and RWPE-1 were from ATCC. C4-2B was from UroCor Inc. (Oklahoma City, Okla.). […]

[3] = tested on: 22Rv1 cells; experiment: Cell survival: colony formation and apoptosis (caspase-3/7, TUNEL); type: cell-based, human
Experimental: (§3) Data shown are mean percentage of apoptotic cells±s.d. […] Data shown are mean±s.d. Significance was calculated using Student's t-test. *p<0.05, **p<0.01.
as §1
as §2, with “ATCC.” for “ATCC. C4-2B was from UroCor Inc. (Oklahoma City, Okla.).”

[4] = tested on: C4-2B cells; experiment: as above; type: cell-based, human
Experimental: as §3, §1
as §2, with “ATCC.” for “ATCC. C4-2B was from UroCor Inc. (Oklahoma City, Okla.).”

[5] = tested on: C4-2B xenografts; experiment: C4-2B xenograft tumor growth; type: in vivo, mouse; conditions: 20 mg/kg, i.p., 5 times a week, 21-24 days
[6] = tested on: TNBC cells including MDA-MB468, MDA-MB231, BT20, SUM149 and HCC1937; experiment: Cell viability (CellTiter-GLO), 4 days, TNBC cells; type: cell-based; conditions: Homo sapiens, 96 h
Experimental: (§4) For cell viability, cells were seeded in 96-well plates at 1500-2500 cells per well (optimum density for growth, depending on the specific cell line) in a total volume of 100 μl media. Serially diluted compounds in 100 μl of media were added to the cells 12 hours later. After 4 days of incubation, Cell-Titer GLO reagents (Promega) were added and luminescence was measured on GLOMAX microplate luminometer (Promega), according to the manufacturer's instructions. All experimental points were set up as sextuplicate as biological replication and the entire experiments were repeated three times. The data are presented as percentage of viable cells with vehicle treated cells set as 100. The estimated in vitro IC50 values were calculated using GraphPad Prism 6 software.

[7] = tested on: HCC1954; experiment: Cell viability (CellTiter-GLO), 4 days, HER2-positive cells; type: cell-based; conditions: Homo sapiens, 96 h; HER2-positive HCC1954, 4 days
Experimental: as §4

[8] = tested on: MCF-7; experiment: Cell viability (CellTiter-GLO), 4 days, ER-positive cells; type: cell-based; conditions: Homo sapiens, MCF7, 96 h; ER-positive MCF-7, 4 days
Experimental: as §4

[9] = tested on: T47D; experiment: as above; type: cell-based; conditions: Homo sapiens, 96 h
Experimental: as §4

[10] = tested on: MCF-7-TamR; experiment: Growth and survival of tamoxifen-resistant breast cancer cells; type: cell-based, human
[11] = tested on: OVCAR420, T24, ECC1, T98G, SUDHL4, SUDHL6, HCT116 and docetaxel-resistant C4-2B cells; experiment: Cell viability (CellTiter-GLO), 4 days, further cancer types; type: cell-based; conditions: Homo sapiens, 96 h, ovarian, bladder, endometrial, glioblastoma, DLBCL, colon
[12] = tested on: HCC70 cells; experiment: Cell viability (CellTiter-GLO), 4 days, TNBC cells; type: cell-based, human
Experimental: (§5) The “No.” label for each compound corresponds to the “Structure No.” in Table 2 (e.g., “No. 36”=“Structure No. 36” in Table 2). The cell viability curves were measured by CellTiter-GLO.
as §4, with “growth)” for “growth, depending on the specific cell line)”

[13] = tested on: MDA-MB468 cells; experiment: Cell viability (CellTiter-GLO), 4 days, TNBC cells; type: cell-based, human
Experimental: as §5
as §4, with “growth)” for “growth, depending on the specific cell line)”

[14] = tested on: SUM159 orthotopic xenograft tumors; experiment: TNBC SUM159 orthotopic xenograft tumor growth in SCID mice; type: in vivo, mouse; conditions: 5 mg/kg, i.p., 5 times per week, 45 days
Experimental: Orthotopic xenograft tumor models and chemical compound treatments: Four-week-old female SCID C.B17 mice (for TNBC SUM159 cell lines) were purchased from Harlan Inc. For establishing tumors, 2×10^6 cells were suspended in total of 100 μL PBS/Matrigel (1:1) and implanted orthotopically into the 4th inguinal mammary fat pads at both sides. Animal group size of six or more was estimated to have a high statistical power, based on power calculation (www.biomath.info/pgwer/) and 20 previous studies involving the same xenograft models. When the tumor volume was approximately 50 mm^3, the mice were randomized and then treated intraperitoneally (i.p.) with 100 μl of vehicle or RORγ inhibitors F18/No. 37, 5 mg/kg; GSK805, 5 mg/kg; GNE3500, 5 mg/kg. (in a formulation of 15% Cremophor EL, Calbiochem, 82.5% PBS, and 2.5% DMSO) for five times per week. Tumor growth was monitored by calipers with volume calculated using the equation: π/6 (length×width^2). Mouse body weight during the course of the study was also monitored. At the end of the studies, mice were killed and tumors were dissected and weighed.

## O=C(Cc1ccccc1[N+](=O)[O-])Nc1ccc(-c2ccc(C(O)(C(F)(F)F)C(F)(F)F)cc2F)cc1 [XY018, N-(2′-fluoro-4′-(1,1,1,3,3,3-hexafluoro-2-hydroxypropan-2-yl)-[1,1′-biphenyl]-4-yl)-2-(2-nitrophenyl)acetamide]
[1]
  IC50: 2100 nM
[2]
  growth inhibition: strong growth inhibition
[3]
  inhibition of cell survival (colony formation, apoptosis): pronounced inhibition of cell survival
[4]
  inhibition of cell survival (colony formation, apoptosis): pronounced inhibition of cell survival
[5]
  tumor growth inhibition: strong tumor growth inhibition
[6]
  IC50: 500 to 3000 nM
[7]
  IC50: 1470 nM
[8]
  IC50: ~9000 nM
[9]
  IC50: ~9000 nM
[10]; MCF-7-TamR, tamoxifen plus XY018
  growth inhibitory effect of tamoxifen in combination with XY018: synergistic growth inhibitory effect
[10]; tamoxifen-resistant MCF-7-TamR, XY018 alone
  inhibition of growth and survival: potently inhibiting the growth and survival
[11]
  IC50: < 3500 nM
[12]
  inhibition of growth and survival: strongly inhibited the growth and survival
[13]
  inhibition of growth and survival: strongly inhibited the growth and survival
[14]
  orthotopic tumor growth inhibition: effectively inhibited the orthotopic TNBC tumor growth
